Assay results as given in ChEMBL document CHEMBL2417406, “Exploring the orthosteric binding site of the γ-aminobutyric acid type A receptor using 4-(Piperidin-4-yl)-1-hydroxypyrazoles 3- or 5-imidazolyl substituted: design, synthesis, and pharmacological evaluation” (J Med Chem, 2013).

Key:
[1] = biological target: T1, GABA-A receptor; alpha-1/beta-2/gamma-2 (Homo sapiens, UniProt P14867+P18507+P47870); assay: Antagonist activity at human alpha1beta2gamma2S GABA-A receptor expressed in tsA201 cells assessed as inhibition of GABA-induced effect after 30 mins by FLIPR membrane potential blue assay; format: cell-based
T1 sequence (P14867 whole entry): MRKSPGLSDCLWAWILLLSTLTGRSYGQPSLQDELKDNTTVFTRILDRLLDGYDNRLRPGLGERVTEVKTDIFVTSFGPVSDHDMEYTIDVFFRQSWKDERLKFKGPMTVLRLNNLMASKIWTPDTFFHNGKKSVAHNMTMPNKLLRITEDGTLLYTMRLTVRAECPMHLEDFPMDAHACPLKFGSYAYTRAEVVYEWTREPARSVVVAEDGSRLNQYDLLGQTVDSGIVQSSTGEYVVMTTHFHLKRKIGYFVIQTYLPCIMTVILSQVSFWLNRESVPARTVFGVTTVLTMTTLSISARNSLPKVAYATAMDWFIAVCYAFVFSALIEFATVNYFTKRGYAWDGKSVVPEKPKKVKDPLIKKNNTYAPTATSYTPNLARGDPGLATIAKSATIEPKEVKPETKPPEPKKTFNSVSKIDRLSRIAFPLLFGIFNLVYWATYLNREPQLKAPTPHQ
T1 sequence (P47870 whole entry): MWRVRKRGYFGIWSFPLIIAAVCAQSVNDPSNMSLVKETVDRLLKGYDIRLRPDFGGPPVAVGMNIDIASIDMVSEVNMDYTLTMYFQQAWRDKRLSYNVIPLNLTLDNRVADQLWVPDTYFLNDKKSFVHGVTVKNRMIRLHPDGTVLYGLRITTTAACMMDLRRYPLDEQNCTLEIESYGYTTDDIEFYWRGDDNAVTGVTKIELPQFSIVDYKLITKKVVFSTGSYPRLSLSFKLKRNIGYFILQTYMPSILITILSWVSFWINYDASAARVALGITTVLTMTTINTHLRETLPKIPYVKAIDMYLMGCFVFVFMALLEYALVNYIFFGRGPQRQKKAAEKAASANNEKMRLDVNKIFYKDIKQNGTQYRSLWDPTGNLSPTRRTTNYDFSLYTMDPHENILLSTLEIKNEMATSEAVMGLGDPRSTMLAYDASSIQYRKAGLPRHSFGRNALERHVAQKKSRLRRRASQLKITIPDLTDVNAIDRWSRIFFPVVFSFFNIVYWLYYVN
T1 sequence (P18507 whole entry): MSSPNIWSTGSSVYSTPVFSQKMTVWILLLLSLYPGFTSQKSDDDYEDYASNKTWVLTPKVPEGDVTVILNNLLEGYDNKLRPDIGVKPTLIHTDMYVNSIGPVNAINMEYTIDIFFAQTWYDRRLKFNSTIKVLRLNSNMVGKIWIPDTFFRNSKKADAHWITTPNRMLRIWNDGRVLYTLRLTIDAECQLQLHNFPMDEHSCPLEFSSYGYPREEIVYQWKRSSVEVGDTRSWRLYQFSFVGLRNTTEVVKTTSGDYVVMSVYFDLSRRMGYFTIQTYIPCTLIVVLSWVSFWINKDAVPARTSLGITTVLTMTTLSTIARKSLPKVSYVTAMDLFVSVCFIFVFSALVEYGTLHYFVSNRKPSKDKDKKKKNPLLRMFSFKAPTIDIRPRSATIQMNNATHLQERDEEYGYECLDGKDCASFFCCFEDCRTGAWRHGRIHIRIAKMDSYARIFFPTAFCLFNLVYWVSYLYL

[2] = Displacement of [3H] muscimol from rat GABA A receptor

## On1cc(C2CCNCC2)c(-c2c[nH]c(-c3ccccc3)n2)n1
[1]
  IC50: 9700 nM
[2]
  Ki: 2500 nM
  pKi: 5.61

## On1ncc(C2CCNCC2)c1-c1cn(Cc2ccccc2)c(Cl)n1
[2]
  Ki: 830 nM
  pKi: 6.09

## COc1ccc(-c2ccc(=N)n(CCCC(=O)O)n2)cc1 [GABAZINE]
[1]
  IC50: 240 nM
[2]
  Ki: […]

## On1cc(C2CCNCC2)c(-c2cccc(-c3ccccc3)c2)n1
[2]
  Ki: 30 nM

## On1ncc(C2CCNCC2)c1-c1c[nH]cn1
[2]
  Ki: 7500 nM
  pKi: 5.14

## On1ncc(C2CCNCC2)c1-c1cn(Cc2ccccc2)c(-c2ccccc2)n1
[1]
  IC50: 780 nM
[2]
  Ki: 230 nM
  pKi: 6.64

## On1ncc(C2CCNCC2)c1-c1c[nH]c(-c2ccccc2)n1
[1]
  IC50: 690 nM
[2]
  Ki: 14 nM
  pKi: 7.86

## On1cc(C2CCNCC2)c(-c2c[nH]cn2)n1
[1]
  IC50: 30000 nM
[2]
  Ki: 5100 nM
  pKi: 5.31

## On1cc(C2CCNCC2)c(-c2cn(Cc3ccccc3)c(Cl)n2)n1
[2]
  Ki: 740 nM
  pKi: 6.14

## On1cc(C2CCNCC2)c(-c2cn(Cc3ccccc3)c(-c3ccccc3)n2)n1
[1]
  IC50: 210 nM
[2]
  Ki: 280 nM
  pKi: 6.57

## On1cc(C2CCNCC2)c(-c2cn(Cc3ccccc3)cn2)n1
[2]
  Ki: 750 nM
  pKi: 6.13

## On1cc(C2CCNCC2)cn1
[1]
  IC50: > 500000 nM
[2]
  Ki: 10000 nM
